Biological target: Protein phosphatase methylesterase 1 (Homo sapiens) (UniProt Q9Y570)
Experiment: PME-1 inhibitors by competitive ABPP, late-stage follow-up, gel-based ABPP, IC50, set 1 (AID 463130)
Conditions: fluorophosphonate probe labeling

Protein phosphatase methylesterase 1 (Homo sapiens), sequence (Q9Y570 whole entry, looked up): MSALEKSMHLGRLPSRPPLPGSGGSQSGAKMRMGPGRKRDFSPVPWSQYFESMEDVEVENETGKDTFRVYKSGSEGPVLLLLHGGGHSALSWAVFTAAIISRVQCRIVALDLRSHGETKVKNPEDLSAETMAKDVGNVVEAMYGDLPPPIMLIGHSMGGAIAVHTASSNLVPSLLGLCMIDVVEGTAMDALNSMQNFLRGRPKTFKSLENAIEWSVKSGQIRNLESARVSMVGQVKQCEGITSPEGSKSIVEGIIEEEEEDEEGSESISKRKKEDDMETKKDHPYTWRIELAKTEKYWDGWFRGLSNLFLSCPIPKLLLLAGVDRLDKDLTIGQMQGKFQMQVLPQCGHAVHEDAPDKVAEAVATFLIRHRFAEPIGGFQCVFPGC

IC50: 195 nM
Compound: COC(=O)N1C(=O)[C@](c2ccccc2)(C(C)C)N1C(=O)OC

— PubChem BioAssay AID463130 (The Scripps Research Institute Molecular Screening Center, 2010)
